Assay results published in ChEMBL document CHEMBL1777692, “Elucidation of common pharmacophores from analysis of targeted metabolites transported by the multispecific drug transporter-Organic anion transporter1 (Oat1)” (Bioorg Med Chem, 2011).

How the values were obtained:
[1] = target: T1, Solute carrier family 22 member 6 (Rattus norvegicus, UniProt O35956); assay: Inhibition of rat Oat1 expressed in Xenopus oocytes; format: cell-based, Oocyte
T1 sequence (O35956 whole entry): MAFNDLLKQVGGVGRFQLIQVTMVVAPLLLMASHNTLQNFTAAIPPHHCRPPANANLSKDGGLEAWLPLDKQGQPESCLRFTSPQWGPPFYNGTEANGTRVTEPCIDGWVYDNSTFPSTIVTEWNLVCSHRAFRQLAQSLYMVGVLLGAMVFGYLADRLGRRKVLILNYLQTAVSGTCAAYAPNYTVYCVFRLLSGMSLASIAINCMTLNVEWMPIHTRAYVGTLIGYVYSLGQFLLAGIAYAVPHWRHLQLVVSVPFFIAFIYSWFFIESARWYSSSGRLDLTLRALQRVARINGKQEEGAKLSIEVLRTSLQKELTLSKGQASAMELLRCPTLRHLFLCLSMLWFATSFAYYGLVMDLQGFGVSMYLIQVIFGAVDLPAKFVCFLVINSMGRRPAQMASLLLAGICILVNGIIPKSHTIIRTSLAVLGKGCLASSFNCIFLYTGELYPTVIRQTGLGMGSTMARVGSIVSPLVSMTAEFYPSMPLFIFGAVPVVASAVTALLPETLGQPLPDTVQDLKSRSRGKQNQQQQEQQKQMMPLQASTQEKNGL

[2] = target: T1, Solute carrier family 22 member 6; assay: Inhibition of rat Oat1 expressed in pig […] cells; format: cell-based

Structure (SMILES) | Ki [1] [µM] | Ki [2] [µM]
CCSC[C@H](NC(C)=O)C(=O)O | 1100 | 
C[C@]12CC[C@@H]3c4ccc(O)cc4CC[C@H]3[C@@H]1CC[C@@H]2O[C@@H]1O[C@H](C(=O)O)[C@@H](O)[C@H](O)[C@H]1O [ESTRADIOL 17B GLUCURONIDE] |  | > 300
CCc1cccc2c3c([nH]c12)C(CC)(CC(=O)O)OCC3 (centres undefined) [ETODOLAC] |  | > 100
CC[C@H](C)C(=O)O[C@H]1C[C@H](O)C=C2C=C[C@H](C)[C@H](CC[C@@H](O)C[C@@H](O)CC(=O)O)[C@H]21 [PRAVASTATIN] |  | 52
